From US20160257651A1, “NOVEL COMPOUND WITH ANTIBACTERIAL ACTIVITY” (priority 2013, published 2016)
Converted amounts (≈) assume the structure as drawn.

Legend:
S. pneumoniae KBSP11 = experiment: MIC against pneumococcus, CAMHB with 5 mass % LHB; type: cell-based, Streptococcus pneumoniae; conditions: Streptococcus pneumoniae, PRSP
Protocol: (§1) The S. pneumoniae strains used for this test belong to any one of the categories of penicillin-susceptible pneumococcus (penicillin-susceptible Streptococcus pneumoniae, PSSP), penicillin-intermediate pneumococcus (penicillin-intermediate Streptococcus pneumoniae, PISP), and penicillin-resistant pneumococcus (penicillin-resistant Streptococcus pneumoniae, PRSP).
(§2) The lysed horse blood was prepared by adding sterilized water to horse sterile defibered blood (produced by Nippon Bio-Supp. Center) at a ratio of 1:1, subjecting the mixture to freezing and thawing 5 times, then centrifuging the mixture twice at 10,000 rpm for 20 minutes, and filtering the supernatant through a filter.
(§3) The S. pneumoniae strains mentioned in Table 11 were each cultured overnight at 37° C. on a blood agar medium as stationary culture. The blood agar medium was prepared by adding 5 mass % ovine sterile defibered blood (produced by Nippon Bio-Supp. Center) to a heart infusion agar medium (produced by EIKEN CHEMICAL). Each S. pneumoniae strain cultured overnight at 37° C. as stationary culture was further subcultured overnight at 37° C. on fresh blood agar medium as stationary culture. After completion of the culture, cells of each pneumococcus strain were collected with a swab, and suspended in physiological saline, and the suspension was adjusted with physiological saline to show absorbance of 0.08 to 0.13 at 625 nm as measured with an absorbance meter (produced by Amersham), and further diluted 200 times with CAMHB containing 5 mass % LHB.
(§4) In Table 11, the amino acid substitution mutations in QRDR of the strains are underlined.

S. pneumoniae BCLSP37 = experiment: MIC against pneumococcus, CAMHB with 5 mass % LHB; type: cell-based, Streptococcus pneumoniae; conditions: Streptococcus pneumoniae, BCLSP37, S. pneumoniae BCLSP37, PSSP, quinolone-resistant; ParC 79Phe, GyrA 85Lys; read-out: MIC
Protocol: as §1, §2, §3, §4

E. faecium RPR2 = experiment: MIC against Enterococcus bacteria; type: cell-based, Enterococcus faecium; conditions: Enterococcus faecium, RPR2
Protocol: (§5) Antibacterial activities of the compound J-131CP against Enterococcus bacteria (Enterococcus faecium and Enterococcus faecalis) were examined by the following methods.
(§6) The compound J-131CP and quinolones were prepared in the same manner as that of Test Example 1-1.
(§7) Cell suspensions were prepared in the same manner as that of Test Example 1-1 described in the section of measurement of MIC in Test Example 1-1, except that the Enterococcus bacterium strains mentioned in Table 8 were used instead of Staphylococcus aureus, and MICs of the compound J-131CP and quinolones as control were determined for the strains in the same manner as that of Test Example 1-1 described in the section of measurement of MIC in Test Example 1-1. In Table 8, the amino acid substitution mutations in QRDR of the strains are underlined.

E. faecium NCTC12202 = experiment: MIC against Enterococcus bacteria; type: cell-based, Enterococcus faecium; conditions: Enterococcus faecium, NCTC 12202 / VRE
Protocol: as §5, §6, §7

[1] = tested on: S. aureus FDA209P (ATCC 6538P); experiment: microbe, parasite or virus in culture; type: cell-based, Staphylococcus aureus; conditions: Staphylococcus aureus, ATCC 6538P / FDA209P / MSSA, quinolone-susceptible MSSA, ParC 80S, GyrA 84S, read-out: MIC
Protocol: (§8) Then, the cell suspension was diluted 500 times with CAMHB mentioned above.

S. aureus Mu50 = experiment: microbe, parasite or virus in culture; type: cell-based, Staphylococcus aureus; conditions: for MIC ratio (Mu50 MIC/FDA209P MIC): MIC for S. aureus Mu50 / MIC for S. aureus FDA209P; for MIC: Staphylococcus aureus, MRSA, S. aureus Mu50, quinolone-resistant MRSA, ParC S80F, GyrA S84L
Protocol: as §8

E. faecalis 36-15722 = experiment: MIC against Enterococcus bacteria; type: cell-based, Enterococcus faecalis; conditions: Enterococcus faecalis, 3615722; E. faecalis 36-15722, quinolone-resistant; ParC 80Ile, GyrA 84Ile; read-out: MIC
Protocol: as §5, §6, §7

E. faecalis NCTC12201 = experiment: MIC against Enterococcus bacteria; type: cell-based; conditions: Enterococcus faecalis, NCTC 12201 / VRE, quinolone-susceptible
Protocol: as §5, §6, §7

E. coli strain 1708 = experiment: Antibacterial activity against Escherichia coli
Description: (§9) The numerical values in the tables indicate MIC (mg/L), Res means resistant bacterium, and Sus means susceptible bacterium.
(§10) Antibacterial activities against Escherichia coli of the compounds shown Table 19 were examined by the following method.
(§11) After completion of the culture, the cells were suspended in fresh TBS to prepare a cell suspension showing an absorbance of 0.3 at 578 nm.

[2] = tested on: E. coli strain 1709 plus PABN; experiment: Antibacterial activity against Escherichia coli in combination with efflux pump inhibitor PAβN; conditions: E coli plus PABN 40 mg/L, strain 1709, Quinolone Sus
Description: as §9, §10, §11

E. coli strain 1709 = experiment: Antibacterial activity against Escherichia coli
Description: as §9, §10, §11

[3] = tested on: E. coli strain 1708 plus PABN; experiment: Antibacterial activity against Escherichia coli in combination with efflux pump inhibitor PAβN; conditions: E coli plus PABN 40 mg/L, strain 1708, Quinolone Res
Description: as §9, §10, §11

| Structure (SMILES) | MIC (S. pneumoniae KBSP11) [µg/mL] | MIC (S. pneumoniae BCLSP37) [µg/mL] | MIC (E. faecium RPR2) [µg/mL] | MIC (E. faecium NCTC12202) [µg/mL] | MIC [1] [µg/mL] | MIC ratio (Mu50 MIC/FDA209P MIC) (S. aureus Mu50) | MIC (S. aureus Mu50) [µg/mL] | MIC (E. faecalis 36-15722) [µg/mL] | MIC (E. faecalis NCTC12201) [µg/mL] | MIC (E. coli strain 1708) [µg/mL] | MIC [2] [µg/mL] | MIC (E. coli strain 1709) [µg/mL] | MIC [3] [µg/mL] |
| --- | --- | --- | --- | --- | --- | --- | --- | --- | --- | --- | --- | --- | --- |
| CC1COc2c(-c3ccc(O)cc3)c(F)cc3c(CO)cc(=O)n1c23 (stereo not shown) [J-149, 9-fluoro-7-(hydroxymethyl)-10-(4-hydroxyphenyl)-3-methyl-2H-[1,4]oxazino[2,3,4-ij]quinolin-5(3H)-one] | 4 (≈ 11.7 µM) | 8 (≈ 23.4 µM) | 16 (≈ 46.9 µM) | 128 (≈ 375 µM) | 0.5 (≈ 1.46 µM) | 1 | 0.5 (≈ 1.46 µM) | 0.5 (≈ 1.46 µM) | 0.5 (≈ 1.46 µM) |  |  |  |  |
| COc1c(-c2ccc(O)cc2)c(F)cc2c(CO)cc(=O)n(C3CC3)c12 [J-156] | 4 (≈ 11.3 µM) | 2 (≈ 5.63 µM) |  |  | 0.5 (≈ 1.41 µM) |  | 0.5 (≈ 1.41 µM) | 2 (≈ 5.63 µM) | 2 (≈ 5.63 µM) | 128 (≈ 360 µM) | 0.1 | 128 (≈ 360 µM) | 2 |
| NCc1cc(=O)n(C2CC2)c2cc(-c3ccc(O)cc3)c(F)cc12 [J-139, 4-(aminomethyl)-1-cyclopropyl-6-fluoro-7-(4-hydroxyphenyl)hydroquinolin-2-one] | 1 (≈ 3.08 µM) | 4 (≈ 12.3 µM) | 8 (≈ 24.7 µM) | 8 (≈ 24.7 µM) | 0.5 (≈ 1.54 µM) | 1 | 0.5 (≈ 1.54 µM) | 4 (≈ 12.3 µM) | 1 (≈ 3.08 µM) |  |  |  |  |
| Nc1ccc(-c2cc3c(cc2F)c(CO)cc(=O)n3C2CC2)cc1 [J-132CP, 7-(4-aminophenyl)-1-cyclopropyl-6-fluoro-4-(hydroxymethyl)hydroquinolin-2-one] | 2 (≈ 6.17 µM) | 4 (≈ 12.3 µM) | 8 (≈ 24.7 µM) | 16 (≈ 49.3 µM) | 0.5 (≈ 1.54 µM) | 1 | 0.5 (≈ 1.54 µM) | 2 (≈ 6.17 µM) | 2 (≈ 6.17 µM) |  |  |  |  |
| O=c1cc(CO)c2cc(F)c(-c3ccc(O)cc3)c(Cl)c2n1C1CC1 [J-161] | 2 (≈ 5.56 µM) | 4 (≈ 11.1 µM) | 8 (≈ 22.2 µM) | 16 (≈ 44.5 µM) | 0.25 (≈ 0.695 µM) |  | 0.5 (≈ 1.39 µM) | 1 (≈ 2.78 µM) | 1 (≈ 2.78 µM) | 128 (≈ 356 µM) | 0.13 | 16 (≈ 44.5 µM) | 1 |
| CC1NCc2cc(-c3cc4c(cc3F)c(CO)cc(=O)n4C3CC3)ccc21 (stereo not shown) [J-144, 1-cyclopropyl-6-fluoro-4-(hydroxymethyl)-7-(1-methylisoindolin-5-yl)hydroquinolin-2-one] | 0.25 (≈ 0.686 µM) | 0.5 (≈ 1.37 µM) | 4 (≈ 11 µM) | 8 (≈ 22 µM) | 0.5 (≈ 1.37 µM) | 2 | 1 (≈ 2.74 µM) | 0.5 (≈ 1.37 µM) | 0.5 (≈ 1.37 µM) |  |  |  |  |
